Read-outs that look alike come from different tables or passages of the source.
Experiments:
[1] = molecular target: T1, recombinant full-length HSET (Homo sapiens, UniProt Q9BW19); experiment: ADP-Glo HSET assay (3 μM ATP), microtubule-stimulated ATPase; format: biochemical; settings: for HSET inhibitory activity (in words): HSET ADP-Glo
T1 construct: 5 nM full-length human N-terminal His-tag HSET; His-tag (N)
T1 sequence (Q9BW19 1-673): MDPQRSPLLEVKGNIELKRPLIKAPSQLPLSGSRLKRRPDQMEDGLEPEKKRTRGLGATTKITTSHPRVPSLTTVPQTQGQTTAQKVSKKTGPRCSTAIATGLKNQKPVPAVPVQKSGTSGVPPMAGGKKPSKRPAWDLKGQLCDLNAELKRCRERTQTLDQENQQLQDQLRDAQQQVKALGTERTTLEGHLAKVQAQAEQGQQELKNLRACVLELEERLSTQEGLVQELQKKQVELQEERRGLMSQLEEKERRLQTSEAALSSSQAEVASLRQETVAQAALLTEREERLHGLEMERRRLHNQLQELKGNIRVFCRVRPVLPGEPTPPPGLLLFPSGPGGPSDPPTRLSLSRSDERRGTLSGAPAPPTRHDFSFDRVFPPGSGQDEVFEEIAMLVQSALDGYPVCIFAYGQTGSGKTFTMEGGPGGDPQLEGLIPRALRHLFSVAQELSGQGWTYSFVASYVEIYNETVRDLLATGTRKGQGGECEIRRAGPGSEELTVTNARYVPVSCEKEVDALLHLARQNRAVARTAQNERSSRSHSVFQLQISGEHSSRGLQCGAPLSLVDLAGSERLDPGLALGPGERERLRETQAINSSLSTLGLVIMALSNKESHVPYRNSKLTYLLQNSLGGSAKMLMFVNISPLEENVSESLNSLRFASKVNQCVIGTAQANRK
Description: (§1) The HSET or Eg5 ATPase activity was measured using the ADP-Glo Kinase Assay kit (Promega, V9102). The assays were run using final concentrations of 5 nM full-length human N-terminal His-tag HSET or 4 nM GST-tagged Eg5 motor domain protein (Cytoskeleton, EG01) and an assay buffer containing 20 mM HEPES pH 6.8, 10 mM MgCl2, 0.25 mM EGTA, 0.4 mM Triton X-100, and 1 mM DTT. Preformed microtubules (Universal Biologicals Cambridge, bovine MT001-XL, or porcine MT002-XL), which were reconstituted in 15 mM PIPES pH 7, 1 mM MgCl2, and 20 μM paclitaxel, were present at a final assay concentration of 70 μg/mL. A reaction volume of 5 μL was used in Proxiplate 384 plus white assay plates (PerkinElmer, 6008280). To measure compound inhibition, 100 nL of compound dissolved in DMSO or DMSO alone was preincubated with the HSET and microtubules for 10 min before 3 μM Ultra-Pure ATP was added to start the ATPase reaction for the 3 μM ATP HSET assay. For the 500 μM ATP HSET assay, the addition of 500 μM Ultra-Pure ATP was used. For the Eg5 ATPase assay, 4.8 μM Ultra-Pure ATP was used. All reactions were incubated at 25 °C for 80 min and then stopped by the addition of 5 μL of the ADP-Glo reagent. 10 μL of Kinase Detection Reagent was then added after a further 45 min of incubation. The luminescence was read after 45 min on a PheraStar FSX plate reader (BMG Labtech). The data processing was performed using Dotmatics Studies software package. Percentage inhibition was determined based on normalization to high controls (0% inhibition, all reagents with 100 nL of DMSO alone) and low controls (100% inhibition […], without HSET). The IC50 values for each compound were determined using a four-parameter logistic curve fit of % inhibition versus concentration.

[2] = Kinetic aqueous solubility (KSol), HPLC-UV; format: physicochemical; settings: PBS buffer pH 7.4, 100 μM solution with 1% DMSO, HPLC with UV detection
[3] = system: centrosome-amplified (4NCA) DLD1 cells; experiment: Multipolar spindle assay (4NCA cell line); format: cell-based, human
Description: (§2) The cellular models consisted of chromosomally stable human colon cancer DLD1 diploid (2N) and tetraploid (4N) cells, along with tetraploid centrosome -amplified (4NCA) DLD1 cells and DLD1 HSET knockout (KO) cells. DLD1 2N and 4N cells were generated and characterized as previously described.[27],[41],[42] In order to generate 4NCA cells, we used dihydro-cytochalasin B (DCB) to transiently block cytokinesis and induce tetraploidisation and centrosome amplification in DLD1 cells. Centrosome amplification in 4NCA cells is transient and therefore they were generated from 2N cells for each run of the assay.[27] The DLD1 HSET KO cells were knockout clones generated by CRISPR and validated by sequencing to have a homozygous deletion in the KIFC1 gene.
(§3) Inhibition of HSET-mediated clustering was measured using a phenotypic assay measuring the formation of multipolar metaphase spindles in DLD1 cells with (4NCA) or without (4N) centrosome amplification. 4NCA cells were generated by treating 2N DLD1 cells with 2 μΜ DCB for 24 h, washed, and released in growth media for 24 h. 4N and 4NCA DLD1 cells were plated in 96-well ibidi μ-Clear plates (IB-89626, ibidi) with a no. 1.5 polymer coverslip bottom with optimal imaging properties. To enrich the mitotic population, cells were first treated for 3.5 h with 8 μM pro-TAME (I-440-01M, R&D system), an inhibitor of APC/C that transiently arrests cells in metaphase without affecting the structure of the spindle. Following the initial arrest, cells were treated with HSET compounds in the presence of 8 μM MG-132 (S2619, SelleckChem), a proteasome inhibitor that helps to maintain the metaphase arrest, where the number of spindle poles/cell can be optimally quantified by an automated segmentation analysis.
(§4) Cells were then fixed in methanol and stained for 3 h for mitotic pole marker aurora A (1:1000 610939 mouse anti-IAK1, BD Biosciences) and phosphorylated histone H3 (1:1500 ab47297 anti-histone H3 pS10, Abcam) as a marker of mitotic cells in 1.5% FBS in PBS. Following primary antibody treatment, cells were incubated with secondary antibodies Alexa Fluor 488 goat antimouse and Alexa Fluor 555 goat antirabbit (1:1500, A11029 and A21429, respectively, Life Technologies) together with 1 μg/mL DAPI (D9542, Sigma) in 1.5% FBS in PBS. Image acquisition was performed at 10× using the GE INCELL 2200 High Content Imaging System (Cytiva) and analyzed using the InCell Investigator software. Mitotic cells were identified by high pHH3 staining and were scored as multipolar if they had more than two mitotic spindle poles. The percentage of multipolar mitoses was calculated by dividing the number of multipolar mitoses by the total of all visible mitoses in one well of a 96-well plate (n > 100 for each replicate, two replicates per concentration point).

[4] = system: non-centrosome amplified DLD1 (4N) cells; experiment: Multipolar spindle assay (4N cell line); format: cell-based, human; settings: for % Multipolarity above baseline @ 15 mM (4N cells): supplementary CSV; for % multipolarity above baseline @ 15 μM (4N cells): 4N DLD1 cells (Table 4)
Description: as §2, §3, §4

[5] = molecular target: T2, GST-tagged Eg5 motor domain (Homo sapiens, UniProt P52732); experiment: ADP-Glo Eg5 assay (4.8 μM ATP); format: biochemical; settings: for IC50: preformed microtubules, 4.8 μM ATP (Table 4)
T2 construct: 4 nM GST-tagged Eg5 motor domain protein (Cytoskeleton, EG01); purchased Cytoskeleton EG01
T2 sequence (P52732 18-359 limits assumed): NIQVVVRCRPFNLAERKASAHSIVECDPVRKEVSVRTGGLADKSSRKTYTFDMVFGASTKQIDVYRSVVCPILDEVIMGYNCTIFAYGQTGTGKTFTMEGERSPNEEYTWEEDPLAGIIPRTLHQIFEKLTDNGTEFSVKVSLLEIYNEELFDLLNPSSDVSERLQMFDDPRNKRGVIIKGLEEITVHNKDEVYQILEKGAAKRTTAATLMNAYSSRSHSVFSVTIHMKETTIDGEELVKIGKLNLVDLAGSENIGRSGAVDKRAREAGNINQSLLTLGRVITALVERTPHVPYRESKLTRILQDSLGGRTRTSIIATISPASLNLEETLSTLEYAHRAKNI
Description: as §1

[6] = preformed microtubules, 3 μM ATP, mean (±SD) n ≥ 3 (37 n = 2, 38 single determination) (Table 3), read-out: HSET ADP-Glo IC50
[7] = 15 μM, 4NCA DLD1 cells (Table 4)
[8] = 15 µM, 4NCA cells, supplementary CSV
[9] = LE = −1.4Log(IC50 [M])/number of non-hydrogen atoms (Table 1)
[10] = LLE = −Log(IC50 [M]) – cLogP (MoKa) (Table 1)
[11] = preformed microtubules, 3 μM ATP, mean (±SD) n ≥ 3 (Table 4), read-out: HSET ADP-Glo IC50
[12] = preformed microtubules, 3 μM ATP, mean (±SD) n ≥ 3, >200 from a single determination (Table 1), read-out: HSET ADP-Glo IC50
[13] = preformed microtubules, 3 μM ATP, mean (±SD) n ≥ 3, >200 from a single determination (Table 2), read-out: HSET ADP-Glo IC50

With `CCCOC(=O)c1sc(NC(=O)C[C@H](CCCN)NC(=O)c2cccc(-c3noc(C)n3)c2)nc1C` [Compound 33, Propyl (S)-2-(6-Amino-3-(3-(5-methyl-1,2,4-oxadiazol-3-yl)benzamido)hexanamido)-4-methylthiazole-5-carboxylate] the IC50 [1, 6] was 0.013 µM and the KSol data [2] was over 90 µM.
For `CCOC(=O)c1sc(NC(=O)CCNC(=O)c2cccc(C)c2)nc1C` [Compound 2, Ethyl 4-Methyl-2-(3-(3-methylbenzamido)propanamido)thiazole-5-carboxylate], the “% multipolarity above baseline @ 15 μM (4NCA cells)” value [3, 7] was 0%, the “% multipolarity above baseline @ 15 μM (4NCA cells)” value [3, 8] was 0% and the “ligand efficiency (LE)” value [1] was 0.30. The “lipophilic ligand efficiency (LLE)” value [1] was 2.5, the IC50 ([1]; ATP concentration of 3 μM, read-out: HSET IC50) was 2.7 µM and the IC50 ([1]; ATP concentration of 150 μM, read-out: HSET IC50 at higher ATP concentration) was 7.1 µM. It also gave an LE [1, 9] of 0.30, an LLE [1, 10] of 2.5 and an IC50 [1, 11] of 2.73 µM. The IC50 [1, 12] was 2.73 µM, the “% Multipolarity above baseline @ 15 mM (4N cells)” value ([4]; 15 μM) was 1% and the “% multipolarity above baseline @ 15 μM (4N cells)” value [4] was 1%. It also gave an IC50 [5] of over 200 µM and an inhibition at 200 µM ([5]; top concentration of 200 μM) of 10%.
Work on `CCCOC(=O)c1sc(NC(=O)C[C@@H](CCCNC)NC(=O)c2cccc(-c3noc(C)n3)c2)nc1C` [Compound 34, Propyl (R)-4-Methyl-2-(3-(3-(5-methyl-1,2,4-oxadiazol-3-yl)benzamido)-6-(methylamino)hexanamido)thiazole-5-carboxylate] yielded an IC50 [1, 6] of 0.26 µM and a KSol data [2] of over 90 µM.
Molecule `CCCOC(=O)c1sc(NC(=O)C[C@H](CCCN(C)CCOCCOCCNC(=O)O[C@@H]2CC/C=C/CCC2)NC(=O)c2cccc(-c3noc(C)n3)c2)nc1C` [Compound 39, Propyl 2-((S)-1-(((S,E)-Cyclooct-4-en-1-yl)oxy)-11-methyl-15-(3-(5-methyl-1,2,4-oxadiazol-3-yl)benzamido)-1-oxo-5,8-dioxa-2,11-diazaheptadecan-17-amido)-4-methylthiazole-5-carboxylate] has an IC50 [1, 6] of 0.107 µM and a KSol data [2] of 53 µM.
For `CCOC(=O)c1sc(NC(=O)CCNC(=O)c2cccc(-c3noc(C)n3)c2)nc1C` [Compound 13, Ethyl 4-Methyl-2-(3-(3-(5-methyl-1,2,4-oxadiazol-3-yl)benzamido)propanamido)thiazole-5-carboxylate], the “% multipolarity above baseline @ 15 μM (4NCA cells)” value [3, 7] was 9%, the “% multipolarity above baseline @ 15 μM (4NCA cells)” value [3, 8] was 9% and the “increase in mitotic spindle multipolarity (4NCA)” value ([3]; 15 μM, centrosome-amplified (4NCA) DLD1 cell line) was about 10%. The LE [1, 9] was 0.33, the LLE [1, 10] was 4.6 and the IC50 [1, 11] was 0.063 µM. The IC50 [1, 12] was 0.063 µM, the “% Multipolarity above baseline @ 15 mM (4N cells)” value ([4]; 15 μM) was 1% and the “effect on multipolar mitoses (4N), in words” value ([4]; 15 μM, non-centrosome amplified DLD1 (4N) cell line) was “no increases in multipolar mitoses”. For the same molecule, the “% multipolarity above baseline @ 15 μM (4N cells)” value [4] was 1% and the IC50 [5] was over 200 µM.
With `CCOC(=O)c1sc(NC(=O)C[C@@H](C)NC(=O)c2cccc(-c3noc(C)n3)c2)nc1C` [Compound 31, Ethyl 4-Methyl-2-[[(3R)-3-[[3-(5-methyl-1,2,4-oxadiazol-3-yl)benzoyl]amino]butanoyl]amino]thiazole-5-carboxylate] the LE ([1]; LE = −1.4Log(IC50 [M])/number of non-hydrogen atoms (Table 2)) was 0.29, the LLE ([1]; LLE = −Log(IC50 [M]) – cLogP (MoKa) (Table 2)) was 3.4 and the IC50 [1, 13] was 0.288 µM.
In the case of `CCOC(=O)c1sc(NC(=O)CCNC(=O)c2ccccc2)nc1C` [Compound 9, Ethyl 2-(3-Benzamidopropanamido)-4-methylthiazole-5-carboxylate], the “HSET inhibitory activity (in words)” value [1] is reported as “ablated the activity” and the IC50 [1, 12] is reported as over 200 µM.
With `CCOC(=O)c1sc(NC(=O)CNC(=O)c2cccc(-c3noc(C)n3)c2)nc1C` [Compound 21, Ethyl 4-Methyl-2-(2-(3-(5-methyl-1,2,4-oxadiazol-3-yl)benzamido)acetamido)thiazole-5-carboxylate] the “HSET inhibitory activity (in words)” value [1] was “abolished the HSET activity” and the IC50 [1, 13] was over 200 µM.
Work on `CCOC(=O)c1sc(NC(=O)CCNC(=O)c2cccc(-c3noc(CC)n3)c2)nc1C` [Compound 14, Ethyl 2-(3-(3-(5-Ethyl-1,2,4-oxadiazol-3-yl)benzamido)propanamido)-4-methylthiazole-5-carboxylate] yielded an LE [1, 9] of 0.25, an LLE [1, 10] of 2.8 and an IC50 [1, 12] of 2.1 µM. For the same molecule, the “fold reduction in HSET potency” value ([1]; relative to 13) was 33 fold.

Source: PMC9969401, “Discovery of 2-(3-Benzamidopropanamido)thiazole-5-carboxylate Inhibitors of the Kinesin HSET (KIFC1) and the Development of Cellular Target Engagement Probes” (Journal of Medicinal Chemistry, 2023)
